Patent US4088778A, “Method for the treatment of hypertension” (priority 1975, dated 1978)

Assay: Clinical Test I, double blind: subjective symptoms
Type: in vivo, human patients
Details: for Stiffness in Shoulders: Improvement ratio: P group 45.2
Procedure: 94 patients of hypertension or arteriosclerosis having subjective symptoms were tested, and some of them suffered from complications such as ischemia heart disease, hypertensive heart disease and encephalomalacia.
As the active drug, there were employed hard capsules, each containing 100 mg of TN.
Two capsules were orally administered at one time, and the administration was conducted three times a day after eating. The period of the administration was principally 4 weeks or 6 weeks. During this period, the administration was performed continuously. Combined administration of drugs having the same function as that of TN (vitamin E drugs, nicotinic acid, its derivatives and peripheral vasolidators) was prohibited. Drugs which had been continuously administered since before the start of the administration of TN were similarly administered according to the disease case and symptom, and change of the prescription during the test was avoided.
In the above Table, the "Improved" means that the symptom was improved by at least one grade as compared with the symptom before the administration,and each number denotes the total number of the patients in whom the symptom was thus improved.
*The patients were divided into two groups, one in which the symptom was
improved by at least 2 grades (the sum of the patients in which the
symptoms were improved by 2, 3 and 4 grades) and the other in which the
symptom was improved by one grade, unchanged or worsened. The assay was
conducted on these two groups. (In other cases, the patients were divided
into two groups, one in which the symptom was improved by one grade and
the other in which the symptom was unchanged or worsened, and the assay
was made on these two groups.)
according to Fischer direct probability calculation method.

[1] = number of patients, total 3 (Table 9)
[2] = number of patients, total 7 (Table 9)
[3] = number of patients, total 8 (Table 9)
[4] = number of patients, total 9 (Table 9)
[5] = number of patients, total 9 (Table 10)
[6] = number of patients, total 11 (Table 9)
[7] = number of patients, total 13 (Table 9)
[8] = number of patients, total 14 (Table 9)
[9] = number of patients, total 15 (Table 9)
[10] = number of patients, total 16 (Table 9)
[11] = number of patients, total 16 (Table 10)
[12] = number of patients, total 17 (Table 9)
[13] = number of patients, total 18 (Table 9)
[14] = number of patients, total 18 (Table 10)
[15] = number of patients, total 23 (Table 9)
[16] = number of patients, total 23 (Table 10)
[17] = number of patients, total 25 (Table 9)
[18] = number of patients, total 25 (Table 10)
[19] = number of patients, total 26 (Table 9)
[20] = number of patients, total 26 (Table 10)
[21] = number of patients, total 28 (Table 9)
[22] = number of patients, total 28 (Table 10)
[23] = number of patients, total 30 (Table 9)
[24] = number of patients, total 51 (Table 10)

Cc1c(C)c2c(c(C)c1OC(=O)c1cccnc1)CCC(C)(CCCC(C)CCCC(C)CCCC(C)C)O2 (racemic) [TN, dl-α-tocopheryl nicotinate]
Forgetfulness: Improvement Ratio (Table 9, P group 21.7): 38.9% | Virtigo: Improvement Ratio (Table 9, P group 37.5): 66.7% | Pains on Waist and Back: Improvement Ratio (Table 9, P group 40.0): 64.7% | Syncope: Improvement Ratio (Table 9, P group 40.0): 75.0% | Chill on Limbs: Improvement Ratio (Table 9, P group 41.2): 35.7% | Stiffness in Nape: Improvement ratio (Table 9, P group 43.8): 68.0% | Stiffness in Shoulders: Improvement ratio (Table 9): 65.4% | Insomnia: Improvement ratio (Table 9, P group 47.4): 83.3% | Dizzy Feeling: Improvement ratio (Table 9, P group 50.0): 81.3% | Irritation: Improvement Ratio (Table 9, P group 50.0): 66.7% | Rush of Blood: Improvement Ratio (Table 9, P group 50.0): 69.2% | Tinnitus: Improvement Ratio (Table 9, P group 52.6): 50.0% | Palsy in Limbs: Improvement ratio (Table 9, P group 53.8): 82.6% | Short Breath: Improvement Ratio (Table 9, P group 53.8): 42.9% | Heaviness in Head: Improvement Ratio (Table 9, P group 62.5): 82.1% | Oppression on Breast: Improvement Ratio (Table 9, P group 63.6): 62.5% | Warmness: Improvement Ratio (Table 9, P group 66.7): 77.8% | Languor: Improvement Ratio (Table 9, P group 70.6): 60.0% | Palpitation: Improvement Ratio (Table 9, P group 76.9): 72.7% | Depression: Improvement Ratio (Table 9, P group 77.8): 42.9% | Headache: Improvement ratio (Table 9, P group 78.6): 83.3% | Pain on Breast: Improvement Ratio (Table 9, P group 100.0): 71.4% | Vertigo: Improvement ratio (Table 10, P group 37.5): 66.7% | Stiffness in Nape: Improvement ratio (Table 10, P group 43.8, chi0^2 = 3.3270, P < 0.10): 68.0% | Stiffness in Shoulders and Nape: Improvement ratio (Table 10, P group 44.4, chi0^2 = 5.6104, P < 0.025): 66.7% | Stiffness in Shoulders: Improvement ratio (Table 10): 65.4% | Vertigo plus Dizzy Feeling: Improvement ratio (Table 10, P group 46.4, chi0^2 = 8.3955, P < 0.005): 73.1% | Insomnia: Improvement ratio (Table 10, P group 47.4, P = 0.0247): 83.3% | Dizzy Feeling: Improvement ratio (Table 10, P group 50.0, chi0^2 = 7.4243, P < 0.01): 81.3% | Palsy in Limbs: Improvement ratio (Table 10, P group 53.8, P = 0.0318): 82.6% | Headache: Improvement ratio (Table 10, P group 62.5, chi0^2 = 3.1277, P < 0.10): 82.1% | relief of headache, vertigo, dizzy feeling, syncope, stiffness in the shoulders, stiffness in the nape, palsy in limbs, insomnia and pains on the waist and the back (human, in vivo): excellent effects were attained | Irritation: Improved [1]: 2 | Irritation: Unchanged or Worsened [1]: 1 | Depression: Improved [2]: 3 | Depression: Unchanged or Worsened [2]: 4 | Pain on Breast: Improved [2]: 5 | Pain on Breast: Unchanged or Worsened [2]: 2 | Short Breath: Improved [2]: 3 | Short Breath: Unchanged or Worsened [2]: 4 | Oppression on Breast: Improved [3]: 5 | Oppression on Breast: Unchanged or Worsened [3]: 3 | Syncope: Improved [3]: 6 | Syncope: Unchanged or Worsened [3]: 2 | Virtigo: Improved [4]: 6 | Virtigo: Unchanged or Worsened [4]: 3 | Warmness: Improved [4]: 7 | Warmness: Unchanged or Worsened [4]: 2 | Vertigo: Improved by 1 grade [5]: 1 | Vertigo: Improved by 2 grades [5]: 3 | Vertigo: Improved by 3 grades [5]: 1 | Vertigo: Improved by 4 grades [5]: 1 | Vertigo: Not Changed [5]: 2 | Vertigo: Worsened by 1 grade [5]: 1 | Vertigo: Worsened by 2 grades [5]: 0 | Palpitation: Improved [6]: 8 | Palpitation: Unchanged or Worsened [6]: 3 | Rush of Blood: Improved [7]: 9 | Rush of Blood: Unchanged or Worsened [7]: 4 | Chill on Limbs: Improved [8]: 5 | Chill on Limbs: Unchanged or Worsened [8]: 9 | Languor: Improved [9]: 9 | Languor: Unchanged or Worsened [9]: 6 | Dizzy Feeling: Improved [10]: 13 | Dizzy Feeling: Unchanged or Worsened [10]: 3 | Tinnitus: Improved [10]: 8 | Tinnitus: Unchanged or Worsened [10]: 8 | Dizzy Feeling: Improved by 1 grade [11]: 0 | Dizzy Feeling: Improved by 2 grades [11]: 11 | Dizzy Feeling: Improved by 3 grades [11]: 1 | Dizzy Feeling: Improved by 4 grades [11]: 1 | Dizzy Feeling: Not Changed [11]: 2 | Dizzy Feeling: Worsened by 1 grade [11]: 1 | Dizzy Feeling: Worsened by 2 grades [11]: 0 | Pains on Waist and Back: Improved [12]: 11 | Pains on Waist and Back: Unchanged or Worsened [12]: 6 | Forgetfulness: Improved [13]: 7 | Forgetfulness: Unchanged or Worsened [13]: 11 | Insomnia: Improved [13]: 15 | Insomnia: Unchanged or Worsened [13]: 3 | Insomnia: Improved by 1 grade [14]: 7 | Insomnia: Improved by 2 grades [14]: 7 | Insomnia: Improved by 3 grades [14]: 0 | Insomnia: Improved by 4 grades [14]: 1 | Insomnia: Not Changed [14]: 2 | Insomnia: Worsened by 1 grade [14]: 1 | Insomnia: Worsened by 2 grades [14]: 0 | Palsy in Limbs: Improved [15]: 19 | Palsy in Limbs: Unchanged or Worsened [15]: 4 | Palsy in Limbs: Improved by 1 grade [16]: 11 | Palsy in Limbs: Improved by 2 grades [16]: 7 | Palsy in Limbs: Improved by 3 grades [16]: 1 | Palsy in Limbs: Improved by 4 grades [16]: 0 | Palsy in Limbs: Not Changed [16]: 4 | Palsy in Limbs: Worsened by 1 grade [16]: 0 | Palsy in Limbs: Worsened by 2 grades [16]: 0 | Stiffness in Nape: Improved [17]: 17 | Stiffness in Nape: Unchanged or Worsened [17]: 8 | Stiffness in Nape: Improved by 1 grade [18]: 11 | Stiffness in Nape: Improved by 2 grades [18]: 5 | Stiffness in Nape: Improved by 3 grades [18]: 1 | Stiffness in Nape: Improved by 4 grades [18]: 0 | Stiffness in Nape: Not Changed [18]: 5 | Stiffness in Nape: Worsened by 1 grade [18]: 2 | Stiffness in Nape: Worsened by 2 grades [18]: 1 | Vertigo plus Dizzy Feeling: Improved by 1 grade [18]: 1 | Vertigo plus Dizzy Feeling: Improved by 2 grades [18]: 14 | Vertigo plus Dizzy Feeling: Improved by 3 grades [18]: 2 | Vertigo plus Dizzy Feeling: Improved by 4 grades [18]: 2 | Vertigo plus Dizzy Feeling: Not Changed [18]: 4 | Vertigo plus Dizzy Feeling: Worsened by 1 grade [18]: 2 | Vertigo plus Dizzy Feeling: Worsened by 2 grades [18]: 0 | Stiffness in Shoulders: Improved [19]: 17 | Stiffness in Shoulders: Unchanged or Worsened [19]: 9 | Stiffness in Shoulders: Improved by 1 grade [20]: 10 | Stiffness in Shoulders: Improved by 2 grades [20]: 5 | Stiffness in Shoulders: Improved by 3 grades [20]: 0 | Stiffness in Shoulders: Improved by 4 grades [20]: 2 | Stiffness in Shoulders: Not Changed [20]: 8 | Stiffness in Shoulders: Worsened by 1 grade [20]: 1 | Stiffness in Shoulders: Worsened by 2 grades [20]: 0 | Heaviness in Head: Improved [21]: 23 | Heaviness in Head: Unchanged or Worsened [21]: 5 | Headache: Improved by 1 grade [22]: 7 | Headache: Improved by 2 grades [22]: 12 | Headache: Improved by 3 grades [22]: 4 | Headache: Improved by 4 grades [22]: 0 | Headache: Not Changed [22]: 4 | Headache: Worsened by 1 grade [22]: 1 | Headache: Worsened by 2 grades [22]: 0 | Headache: Improved [23]: 25 | Headache: Unchanged or Worsened [23]: 5 | Stiffness in Shoulders and Nape: Improved by 1 grade [24]: 13 | Stiffness in Shoulders and Nape: Improved by 2 grades [24]: 21 | Stiffness in Shoulders and Nape: Improved by 3 grades [24]: 1 | Stiffness in Shoulders and Nape: Improved by 4 grades [24]: 2 | Stiffness in Shoulders and Nape: Not Changed [24]: 3 | Stiffness in Shoulders and Nape: Worsened by 1 grade [24]: 1 | Stiffness in Shoulders and Nape: Worsened by 2 grades [24]: 0
